{"source": "paper PMC12301034", "about": "“Design and Synthesis of Boronic Chalcones with Dual Anticancer and Anti-Inflammatory Activity” (Molecules, 2025)", "key": {"Kinetic solubility": {"test": "Kinetic solubility", "format": "physicochemical", "experimental": "To determine kinetic solubility, stock solutions of test compounds and controls [Amiodarone hydrochloride (Sigma-Aldrich, St. Louis, MO, USA), Diclofenac (Oakwood Chemical, Estill, SC, USA), Chloramphenicol (Sigma-Aldrich, St. Louis, MO, USA), and Itraconazole (Sigma-Aldrich, St. Louis, MO, USA)] were prepared at 10 mM in DMSO. A volume of 5 µL from each stock solution was transferred to designated wells of a 96-well incubation plate in duplicate. Subsequently, 195 µL of phosphate-buffered saline (PBS) at pH 7.4 or 2.0 was added to achieve a final compound concentration of 250 µM (final DMSO concentration ≤ 2.5%). The plate was sealed and subjected to shaking at 200 rpm for 24 ± 1 h at room temperature (25 °C). Following the incubation period, the plate was centrifuged at 3000 rpm for 15 min at 25 °C to remove precipitates. A 100 µL aliquot of the supernatant from each well was transferred to a corresponding well in a new 96-well plate. The samples were subsequently analyzed by an LCMS-8045 system (Shimazu, Kyoto, Japan). To quantify the solubilized fraction, a calibration curve was prepared for each test compound and control. From the 10 mM stock solution, an intermediate standard solution (0.5 mM) was prepared in a 1:1 acetonitrile:water mixture. Serial dilutions of this intermediate solution were performed to obtain final concentrations of 50, 40, 20, 2, and 1 µM. […]"}, "HCT116 p53^+/+ cells": {"system": "HCT116 p53^+/+ cells", "test": "SRB cytotoxicity assay on HCT116 p53+/+ cells", "format": "cell-based, human", "details": "Homo sapiens, HCT-116, 48 h of treatment", "description": "The SCC-25 (ATCC® CRL-1628™), Detroit-562 (ATCC® CCL-138™), and THP-1 (ATCC® TIB-202™) cells were purchased from Rio de Janeiro Cell Bank (Duque de Caxias, Brazil), and NOK-si was kindly provided by Prof. Carlos Rossa from the School of Dentistry—UNESP. All the cells were cultivated according to standard conditions. Human colorectal adenocarcinoma HCT116 cell lines (ATCC® CCL-247™) expressing p53 and its p53-null isogenic derivative (HCT116 p53^−/−) were provided by B. Vogelstein (The Johns Hopkins Kimmel Cancer Center, Baltimore, MD, USA).\nHCT p53^+/+ and HCT p53^−/− cell lines were seeded in 96-well plates, with a concentration of 5000 cells/well, and allowed to adhere overnight. Afterwards, they were treated with serial dilutions of the compounds for an additional 48 h (compounds were prepared at 30 mM, in DMSO, and tested with a starting concentration of 50μM and 15 μM). Cells passed then through a series of essential steps (fixation with 10% trichloroacetic acid, for 1 h at 4 °C; staining with 0.4% sulforhodamine B (SRB); wash with 1% acetic acid; and solubilization with 10 mM Tris-Base); subsequently, absorbance was measured at 510 nm in a microplate reader (Biotek Instruments Inc., Synergy, MX, USA). IC50 values were determined using GraphPad Prism software, Version 7.0 (La Jolla, CA, USA)."}, "[1]": {"test": "Metabolic stability in human liver microsomes", "format": "in vitro ADME", "experimental": "The metabolic stability of test compounds and controls [imipramine (Sigma-Aldrich, St. Louis, MO, USA), verapamil (Sigma-Aldrich, St. Louis, MO, USA), and warfarin (Sigma-Aldrich, St. Louis, MO, USA)] were assessed using human pooled liver human microsomes (20 mg/mL) (GIBCO, Frederick, MD, USA) and pooled liver CD1 mouse microsomes (20 mg/mL) (GIBCO, Frederick, MD, USA). […] Microsomal suspensions were thawed and diluted in phosphate buffer to obtain a final concentration of 0.25 mg/mL. A solution of NADPH (Sigma-Aldrich, St. Louis, MO, USA) at […] was also prepared in phosphate buffer. […] The plate was incubated at 37 °C under shaking (100 rpm). […] The reactions were stopped by adding quenching solution (75 μL) consisting of acetonitrile:methanol (1:1) with an internal standard (50 nM). Samples were centrifuged (3500 rpm, 30 min) to remove precipitated microsomal proteins, and the supernatant fractions were analyzed by an LCMS-8045 system (Shimazu, Kyoto, Japan). The chromatographic analysis was performed using a Supelco Ascentis Express C18 column (3 cm × 2.1 mm, 5 μm). The mobile phases consisted of water + 0.1% formic acid (A) and acetonitrile + 0.1% formic acid (B). […] The run time was 2 min, with a sample injection volume of 10 μL and a flow rate of 0.7 mL/min. Metabolic stability was assessed by calculating the peak area ratios (analyte/internal standard) and converting them into the percentage of the compound remaining, using the area ratio at time 0 as 100%."}}, "note": "Where two headings read alike, the source gives them in different places."}
{"compound": "COc1cccc(C(=O)/C=C/c2cccc(B(O)O)c2)c1", "note": "[Compound 5, (E)-(3-(3-(3-methoxyphenyl)-3-oxoprop-1-en-1-yl)phenyl)boronic acid]", "values": [{"measurement": "solubility class", "setting": "Kinetic solubility; kinetic solubility pH 7.4", "result": "moderate-to-high solubility"}, {"measurement": "solubility at 24 h", "setting": "Kinetic solubility; phosphate-buffered saline, aqueous buffer, kinetic from dmso stock, PBS pH 7.4, 24 h, 25 °C, read-out: Kinect Solubility (KS) pH = 7.4", "result": "> 39.6", "unit": "µg/mL"}, {"measurement": "IC50", "setting": "HCT116 p53^+/+ cells", "result": "2500 ± 170", "unit": "nM"}, {"measurement": "intrinsic clearance (Clint) in HLM", "setting": "[1]", "result": "high clearance"}, {"measurement": "microsomal CLint at 0.51 μM", "setting": "[1]; human, microsomes, pH 7.4", "result": 56.8, "unit": "µL/min/mg"}, {"measurement": "half-life at 0.51 μM", "setting": "[1]; human, pooled liver microsomes, pH 7.4, read-out: Human Liver Microsome (HLM) T1/2", "result": 48.8, "unit": "min"}, {"measurement": "microsomal CLint at 0.51 μM", "setting": "[1]; human, pooled liver microsomes, pH 7.4, read-out: intrinsic clearance (Clint) in HLM", "result": 77, "unit": "µL/min/mg"}]}
